Measurements reported in article PMC9959269, “Pyrrolyl and Indolyl α-γ-Diketo Acid Derivatives Acting as Selective Inhibitors of Human Carbonic Anhydrases IX and XII” (Pharmaceuticals, 2023).
“And” between values parts separate entries of the source, which are not always exact repeats. Identical values can stand only once.

Legend:
hCA IX = biological target: T1, hCA IX (Homo sapiens, UniProt Q16790); assay: Stopped flow CO2 hydrase assay, hCA IX inhibition; assay type: biochemical; conditions: for Ki: stopped flow technique, means ± SEM of 3 different assays, recombinant hCA IX, read-out: Ki CA IX; for Selectivity for CA IX and XII over hCAs I and II: from Ki values
T1 construct: made in house
Protocol: (§1) An Applied Photophysics stopped-flow instrument has been used for assaying the CA catalyzed CO2 hydration activity. Phenol red (at a concentration of 0.2 mM) has been used as an indicator, working at the absorbance maximum of 557 nm, with 20 mM Hepes (pH 7.5) as buffer and 20 mM Na2SO4 (for maintaining constant the ionic strength), following the initial rates of the CA-catalyzed CO2 hydration reaction for a period of 10−100 s. The CO2 concentrations ranged from 1.7 to 17 mM for the determination of the kinetic parameters and inhibition constants. […] The uncatalyzed rates were determined in the same manner and subtracted from the total observed rates. Stock solutions of inhibitor (0.1 mM) were prepared in distilled−deionized water and dilutions up to 0.01 nM were performed thereafter with the assay buffer. Inhibitor and enzyme solutions were preincubated together for 15 min at room temperature before assay to allow for the formation of the E−I complex. The inhibition constants were obtained by nonlinear least-squares methods using PRISM 3 and the Cheng−Prusoff equation, as reported earlier, and they represent the mean from at least three different determinations. […] All hCA isoforms were recombinant ones obtained in-house as reported earlier.

hCA II = biological target: T2, hCA II (Homo sapiens, UniProt P00918); assay: Stopped flow CO2 hydrase assay, hCA II inhibition; assay type: biochemical; conditions: stopped flow technique; means ± SEM of 3 different assays; recombinant hCA II; read-out: Ki CA II
T2 construct: made in house
Protocol: as §1

hCA I = biological target: T3, hCA I (Homo sapiens, UniProt P00915); assay: Stopped flow CO2 hydrase assay, hCA I inhibition; assay type: biochemical; conditions: stopped flow technique, means ± SEM of 3 different assays, recombinant hCA I; for Ki: read-out: Ki CA I
T3 construct: made in house
Protocol: as §1

hCA XII = biological target: T4, hCA XII (Homo sapiens, UniProt O43570); assay: Stopped flow CO2 hydrase assay, hCA XII inhibition; assay type: biochemical; conditions: for Ki: stopped flow technique, means ± SEM of 3 different assays, recombinant hCA XII, read-out: Ki CA XII
T4 construct: made in house
Protocol: as §1

[1] = system: pharynx squamous carcinoma FaDu; assay: In vitro proliferation assay (sulforhodamine B), FaDu; assay type: cell-based; conditions: Homo sapiens, ± SD
Protocol: (§2) The effects of selected compounds were also examined on the proliferation of four cell lines from different human solid tumors overexpressing hCA isoforms IX and XII: triple negative breast cancer MDA-MB231, colon carcinoma HT-29, tongue squamous carcinoma SCC-15 and pharynx squamous carcinoma FaDu. The cell lines were treated with 5, 10, 20, 50, 100 µM of each single compound for 24 and 48 h. In parallel, the proliferation assay was performed also on HaCaT, a human non-transformed keratinocyte cell line, with each compound used at the same concentrations and times already indicated. The median values from three different proliferation assays for each compound and for each cell line were calculated and their significance was evaluated.
(§3) The following human tumor cell lines were utilized in the present study: triple-negative breast cancer MDA-MB231, colon carcinoma HT-29, tongue squamous cell carcinoma SCC-15 and pharynx squamous cell carcinoma FaDu. In addition, a spontaneously transformed keratinocyte cell line from human skin HaCaT was used as control of non-transformed cells. All cell lines were purchased from the American Type Culture Collection (Manassas, VA, USA).
(§4) The cell lines were grown in RPMI 1640 medium supplemented with 10% fetal calf serum (FCS), 2 mM glutamine and 50 U/mL penicillin–streptomycin.
(§5) All compounds were solubilized in dimethylsulfoxide (DMSO) (Sigma) for a 10 mM stock solution and utilized to final concentrations from 5 to 100 μM for 24 and 48 h. Control cells were treated with equivalent amounts of DMSO in every experiment.
(§6) To determine cytotoxicity, a sulforhodamine B colorimetric assay was performed: 5 × 10^3 cells were plated on 96-well plates, grown for 24 h and treated with different concentrations of each compound for 24 and 48 h. Cells were then fixed with 50% trichloroacetic acid for 1 h at 4 °C and stained for 30 min (min) at room temperature (RT) with 0.4% sulforhodamine B in 1% acetic acid. Excess dye was removed by washing four times with 1% acetic acid. Protein-bound dye was dissolved in 10 mM Tris pH 10 and optical density was determined at 510 nm using a microplate reader.

[2] = system: MDA-MB231, HT-29, SCC-15 and FaDu tumor cell lines; assay: In vitro proliferation assay, four tumor cell lines taken together; assay type: cell-based, human; conditions: for Antiproliferative activity (in words): four tumor cell lines, 5-100 µM, 24 and 48 h; for Lowest concentration determining a significant decrease in alive cells: tumor cell lines, 24 h
Protocol: as §2, §3, §4, §5, §6

colon carcinoma HT-29 = assay: In vitro proliferation assay (sulforhodamine B), HT-29; assay type: cell-based; conditions: Homo sapiens, ± SD
Protocol: as §2, §3, §4, §5, §6

[3] = system: tongue squamous carcinoma SCC-15; assay: In vitro proliferation assay (sulforhodamine B), SCC-15; assay type: cell-based; conditions: Homo sapiens, ± SD
Protocol: as §2, §3, §4, §5, §6

[4] = system: triple negative breast cancer MDA-MB231; assay: In vitro proliferation assay (sulforhodamine B), MDA-MB231; assay type: cell-based; conditions: Homo sapiens, MDA-MB-231, ± SD
Protocol: as §2, §3, §4, §5, §6

HaCaT = assay: In vitro proliferation assay (sulforhodamine B), HaCaT non-transformed keratinocytes; assay type: cell-based, human; conditions: 24 and 48 h, no effect except at a very high concentration, above 100 µM
Protocol: as §2
The following human tumor cell lines were utilized in the present study: triple-negative breast cancer MDA-MB231, colon carcinoma HT-29, tongue squamous cell carcinoma SCC-15 and pharynx squamous cell carcinoma FaDu. […]
To determine cytotoxicity, a sulforhodamine B colorimetric assay was performed: 5 × 10^3 cells were plated on 96-well plates, grown for 24 h and treated with different concentrations of each compound for 24 and 48 h. […] Protein-bound dye was dissolved in 10 mM Tris pH 10 and optical density was determined at 510 nm using a microplate reader.

T4 sequence (O43570 25-354): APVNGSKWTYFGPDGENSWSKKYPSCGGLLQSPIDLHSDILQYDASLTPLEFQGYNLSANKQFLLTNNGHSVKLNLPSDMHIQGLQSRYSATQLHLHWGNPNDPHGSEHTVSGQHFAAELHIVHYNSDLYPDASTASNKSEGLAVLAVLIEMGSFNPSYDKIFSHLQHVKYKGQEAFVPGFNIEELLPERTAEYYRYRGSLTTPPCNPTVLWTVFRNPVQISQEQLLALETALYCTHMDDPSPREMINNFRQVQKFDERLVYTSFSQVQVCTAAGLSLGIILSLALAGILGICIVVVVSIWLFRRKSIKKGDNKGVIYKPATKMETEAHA
T3 sequence (P00915 whole entry): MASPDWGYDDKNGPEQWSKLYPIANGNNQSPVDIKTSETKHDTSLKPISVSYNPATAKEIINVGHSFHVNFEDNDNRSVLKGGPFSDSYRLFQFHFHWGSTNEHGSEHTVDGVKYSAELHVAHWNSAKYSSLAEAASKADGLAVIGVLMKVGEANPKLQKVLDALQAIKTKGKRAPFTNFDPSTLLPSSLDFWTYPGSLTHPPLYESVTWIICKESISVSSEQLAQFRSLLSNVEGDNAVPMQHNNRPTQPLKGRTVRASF

Ki (hCA IX)	Ki (hCA II)	Ki (hCA I)	Ki (hCA XII)	EC50 ([1]; 24 h treatment)	EC50 ([1]; 48 h treatment)	EC50 (colon carcinoma HT-29; 24 h treatment)	EC50 (colon carcinoma HT-29; 48 h treatment)	EC50 ([3]; 24 h treatment)	EC50 ([3]; 48 h treatment)	Selectivity for CA IX and XII over hCAs I and II (hCA IX)	EC50 ([4]; 24 h treatment)	EC50 ([4]; 48 h treatment)	Ki CA I (hCA I)	Increase in activity against CA IX relative to diketobutanoic analogue 3a (hCA IX; ratio of Ki values, 5 vs 3a)	Increase in activity against CA XII relative to diketobutanoic analogue 3a (hCA XII; ratio of Ki values, 5 vs 3a)	SMILES	Antiproliferative activity (in words) [2]	Effect on proliferation of HaCaT cells (HaCaT)	Lowest concentration determining a significant decrease in alive cells [2]
90.1 ± 4.7 µM	> 100 µM	> 100 µM	83.6 ± 5.4 µM	–	–	–	–	–	–	–	–	–	–	–	–	CCOC(=O)/C(O)=C/C(=O)/C=C/c1cccn1Cc1ccc(F)cc1 [Compound 2a]	–	–	–
23.7 ± 1.6 µM	> 100 µM	> 100 µM	80.5 ± 6.1 µM	–	–	–	–	–	–	–	–	–	–	–	–	CCOC(=O)/C(O)=C/C(=O)/C=C/c1cccn1Cc1ccccc1F [Compound 2b]	–	–	–
90.8 ± 4.6 µM	> 100 µM	> 100 µM	89.3 ± 5.3 µM	–	–	–	–	–	–	–	–	–	–	–	–	CCOC(=O)/C(O)=C/C(=O)/C=C/c1cccn1Cc1ccc(C)cc1 [Compound 2c]	–	–	–
1.4 ± 0.1 µM	77.6 ± 4.5 µM	> 100 µM	0.3 µM and 0.33 µM	–	–	–	–	–	–	–	–	–	inactive	–	–	O=C(O)/C(O)=C/C(=O)c1cn(Cc2ccc(F)cc2)cc1-c1ccccc1 [Compound 3a]	–	–	–
18.4 ± 1.2 µM	54.7 ± 2.9 µM	50.9 ± 4.1 µM	7.9 ± 0.6 µM	–	–	–	–	–	–	–	–	–	–	–	–	O=C(O)/C(O)=C/C(=O)c1ccn(Cc2ccc(F)cc2)c1 [Compound 3b]	–	–	–
57.3 ± 2.8 µM	> 100 µM	> 100 µM	89.2 ± 5.2 µM	–	–	–	–	–	–	–	–	–	–	–	–	CCOC(=O)/C(O)=C/C(=O)c1cn(Cc2ccc(F)cc2)cc1-c1ccccc1 [Compound 4a]	–	–	–
> 100 µM	> 100 µM	> 100 µM	71.5 ± 4.3 µM	–	–	–	–	–	–	–	–	–	–	–	–	CCOC(=O)/C(O)=C/C(=O)c1ccn(Cc2ccc(F)cc2)c1 [Compound 4b]	–	–	–

More lines, now with the values behind:

SMILES	Ki (hCA IX)	Ki (hCA II)	Ki (hCA I)	Ki (hCA XII)	EC50 ([1]; 24 h treatment)	EC50 ([1]; 48 h treatment)	EC50 (colon carcinoma HT-29; 24 h treatment)	EC50 (colon carcinoma HT-29; 48 h treatment)	EC50 ([3]; 24 h treatment)	EC50 ([3]; 48 h treatment)	Selectivity for CA IX and XII over hCAs I and II (hCA IX)	EC50 ([4]; 24 h treatment)	EC50 ([4]; 48 h treatment)	Ki CA I (hCA I)	Increase in activity against CA IX relative to diketobutanoic analogue 3a (hCA IX; ratio of Ki values, 5 vs 3a)	Increase in activity against CA XII relative to diketobutanoic analogue 3a (hCA XII; ratio of Ki values, 5 vs 3a)	Antiproliferative activity (in words) [2]	Effect on proliferation of HaCaT cells (HaCaT)	Lowest concentration determining a significant decrease in alive cells [2]
O=C(/C=C(\O)C(=O)O)/C=C/c1cccn1Cc1ccc(F)cc1 [Compound 1a]	2 ± 0.1 µM	14.6 ± 0.9 µM	81.9 ± 6 µM	1 ± 0.1 µM	–	–	–	–	–	–	–	–	–	–	–	–	–	–	–
O=C(/C=C(\O)C(=O)O)/C=C/c1cccn1Cc1ccccc1F [Compound 1b]	2.5 ± 0.1 µM	14 ± 0.8 µM	89.6 ± 4.8 µM	2.2 ± 0.1 µM	98 ± 8.6 µM	90 ± 9.3 µM	92 ± 9.9 µM	75 ± 8.2 µM	–	–	–	–	–	–	–	–	low efficacy	–	–
Cc1ccc(Cn2cccc2/C=C/C(=O)/C=C(\O)C(=O)O)cc1 [Compound 1c]	0.8 µM and 0.82 µM	44.4 ± 2.6 µM	79 ± 3.9 µM	0.9 ± 0.07 µM	59 ± 4.5 µM	17 ± 0.9 µM	115 ± 10.8 µM	48 ± 4.1 µM	96 ± 8.5 µM	53 ± 5.9 µM	two orders of magnitude selective	85 ± 9.1 µM	73 ± 5.5 µM	–	–	–	significant antiproliferative activity	–	–
O=C(/C=C(\O)C(=O)O)/C=C/c1cc(C(=O)c2ccccc2)c[nH]1 [Compound 1d]	1.4 ± 0.1 µM	38.7 ± 2 µM	72.5 ± 5.1 µM	1.1 ± 0.1 µM	–	–	–	–	–	–	–	–	–	–	–	–	–	–	–
O=C(/C=C(\O)C(=O)O)/C=C/c1cn(Cc2ccc(F)cc2)cc1-c1ccccc1 [Compound 5]	0.3 µM and 0.32 µM	62.5 ± 3.6 µM	> 100 µM	0.2 µM and 0.24 µM	103 ± 11.4 µM	23 ± 2.8 µM	98 ± 11 µM	21 ± 1.6 µM	102 ± 9.7 µM	58 ± 6.2 µM	two orders of magnitude selective	120 ± 15.7 µM	105 ± 13.2 µM	inactive	more than 4 times	about 1.5 times	significant antiproliferative activity	–	–
CCOC(=O)/C(O)=C/C(=O)/C=C/c1cn(Cc2ccc(F)cc2)cc1-c1ccccc1 [Compound 6]	43.1 ± 2.5 µM	> 100 µM	> 100 µM	89 ± 6.1 µM	–	–	–	–	–	–	–	–	–	–	–	–	–	–	–
COc1ccc(Cn2cc(/C=C/C(=O)/C=C(\O)C(=O)O)c3ccccc32)cc1 [Compound 7]	1.1 ± 0.1 µM	36.5 ± 1.9 µM	91.7 ± 7.5 µM	0.8 µM and 0.83 µM	51 ± 4.7 µM	22 ± 1.2 µM	47 ± 5 µM	30 ± 2.8 µM	48 ± 3.9 µM	17 ± 0.8 µM	–	21 ± 1.8 µM	12 ± 1.1 µM	–	–	–	–	no significant effect	10 µM
CCOC(=O)/C(O)=C/C(=O)/C=C/c1cn(Cc2ccc(OC)cc2)c2ccccc12 [Compound 8]	80.1 ± 5.3 µM	> 100 µM	> 100 µM	92 ± 6 µM	41 ± 3.3 µM	18 ± 0.7 µM	75 ± 8.8 µM	44 ± 2.3 µM	44 ± 4.1 µM	21 ± 1.9 µM	–	23 ± 1.6 µM	17 ± 0.9 µM	–	–	–	–	no significant effect	10 µM
